Test results published in US9221809B2 (MERCK SHARP & DOHME CORP., priority 2011, dated 2015).
Where a name gives a salt, the structure may show the parent alone.

Molecular target: IRAK4 (Homo sapiens (Human), UniProt Q9NWZ3)
Assay: IRAK4 kinase activity, IMAP fluorescence polarization assay
Assay type: biochemical
Conditions: 100 μM ATP, 0.5 nM GST tagged IRAK4; read-out: IRAK4 IC50
Protocol: The kinase activity of IRAK4 is determined by its ability to catalyze the phosphorylation of a fluorescent polypeptide substrate. The extent of phosphorylation is measured using IMAP technology (Molecular Devices) where the phosphorylated fluorescent substrate binds to the large M(III)-based nanoparticles which reduces the rotational speed of the substrate and thus increases its fluorescent polarization (FP).
Assay Procedure: A 20 μl reaction mixture contains 10 mM TriHCl, pH 7.2, 0.5 nM GST tagged IRAK4 (SignalChem), 100 nM fluorescent peptide substrate (RP7030, Molecular Devices), 100 μM ATP, 1 mM DTT, 1 mM MgCl2, and 0.01% Tween 20. The reaction is initiated by the addition of ATP. After incubation for 30 minutes at 25° C., 60 μl of Progressive IMAP Reagent (Molecular Devices) is added to stop the reaction. Change in RP7030's FP is determined by a FP reader (Analyst HT, LJL BioSystems)

IRAK4, sequence (Q9NWZ3 whole entry): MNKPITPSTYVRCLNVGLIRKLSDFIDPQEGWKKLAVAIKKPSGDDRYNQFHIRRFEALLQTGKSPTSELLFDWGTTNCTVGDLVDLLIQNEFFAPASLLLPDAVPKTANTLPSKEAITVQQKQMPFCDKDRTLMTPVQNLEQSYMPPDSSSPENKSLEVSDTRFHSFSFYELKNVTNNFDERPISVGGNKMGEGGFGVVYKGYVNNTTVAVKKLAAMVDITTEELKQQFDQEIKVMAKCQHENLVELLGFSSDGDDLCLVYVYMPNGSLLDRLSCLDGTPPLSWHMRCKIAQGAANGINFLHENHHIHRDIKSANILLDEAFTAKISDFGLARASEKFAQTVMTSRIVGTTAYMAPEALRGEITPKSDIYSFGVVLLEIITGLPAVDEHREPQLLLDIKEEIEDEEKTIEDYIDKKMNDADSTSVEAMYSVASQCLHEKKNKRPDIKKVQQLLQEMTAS

Structure (SMILES) | IC50
CS(=O)(=O)N1CC2(CN(c3nc(N[C@@H]4C[C@H](CO)[C@@H](O)[C@H]4O)c(-c4nc5ccccc5s4)c(=O)[nH]3)C2)C1 [Example 14, 5-(Benzo[d]thiazol-2-yl)-6-((1R,2S,3R,4R)-2,3-dihydroxy-4-(hydroxymethyl)cyclopentylamino)-2-(6-(methylsulfonyl)-2,6-diazaspiro[3.3]heptan-2-yl)pyrimidin-4(3H)-one.HCl] | 5.6 nM
O=c1[nH]c(NC2CCC2)nc(N[C@@H]2C[C@H](CO)[C@@H](O)[C@H]2O)c1-c1nc2cnccc2s1 [Example 55, 2-(Cyclobutylamino)-6-((1R,2S,3R,4R)-2,3-dihydroxy-4-(hydroxymethyl)cyclopentylamino)-5-(thiazolo[4,5-c]pyridin-2-yl)pyrimidin-4(3H)-one.HCl] | 2.5 nM
O=c1[nH]c(N2CCOCC2)nc(N[C@@H]2CCCNC2)c1-c1nc(-c2ccc(OC(F)(F)F)cc2)cs1 [Example 103, (R)-2-morpholino-6-(piperidin-3-ylamino)-5-(4-(4-(trifluoromethoxy)phenyl)thiazol-2-yl)pyrimidin-4(3H)-one.HCl] | 2250 nM
O=c1[nH]c(N2CCOCC2)nc(N[C@@H]2CCCNC2)c1-c1nc2cnccc2s1 [Example 113, (R)-2-morpholino-6-(piperidin-3-ylamino)-5-(thiazolo[4,5-c]pyridin-2-yl)pyrimidin-4(3H)-one.HCl] | 12 nM
O=c1[nH]c(N[C@@H]2CCCNC2)nc(N[C@@H]2C[C@H](CO)[C@@H](O)[C@H]2O)c1-c1nc2ccccc2s1 [Example 38, 5-(Benzo[d]thiazol-2-yl)-6-(((1R,2S,3R,4R)-2,3-dihydroxy-4-(hydroxymethyl)cyclopentyl)amino)-2-((R)-piperidin-3-ylamino)pyrimidin-4(3H)-one.HCl] | 5120 nM
O=c1[nH]c(N2CC3(COC3)C2)nc(N[C@@H]2C[C@H](CO)[C@@H](O)[C@H]2O)c1-c1nc2ccccc2s1 [Example 13, 5-(Benzo[d]thiazol-2-yl)-6-((1R,2S,3R,4R)-2,3-dihydroxy-4-(hydroxymethyl)cyclopentylamino)-2-(2-oxa-6-azaspiro[3.3]heptan-6-yl)pyrimidin-4(3H)-one.HCl] | 8.9 nM
O=c1[nH]c(NC2CCC2)nc(N[C@@H]2C[C@H](CO)[C@@H](O)[C@H]2O)c1-c1cscn1 [Example 23, 2-(Cyclobutylamino)-6-((1R,2S,3R,4R)-2,3-dihydroxy-4-(hydroxymethyl)cyclopentylamino)-5-(thiazol-4-yl)pyrimidin-4(3H)-one.HCl] | 1790 nM
CC(C)[C@H]1C[C@@H](Nc2nc[nH]c(=O)c2-c2nc3ccccc3s2)[C@H](O)[C@@H]1O [Example 43, 5-(Benzo[d]thiazol-2-yl)-6-((1R,2S,3R,4R)-2,3-dihydroxy-4-isopropylcyclopentylamino)pyrimidin-4(3H)-one.HCl] | 850 nM
O=c1[nH]c(NC2CCCC2)nc(N[C@@H]2C[C@H](CO)[C@@H](O)[C@H]2O)c1-c1nc2ccccc2s1 [Example 4, 5-(Benzo[d]thiazol-2-yl)-2-(cyclopentylamino)-6-((1R,2S,3R,4R)-2,3-dihydroxy-4-(hydroxymethyl)cyclopentylamino)pyrimidin-4(3H)-one.HCl] | 92 nM
O=c1[nH]c(N2CCOCC2)nc(N[C@@H]2CCCNC2)c1-c1csc(-n2cccc2)n1 [Example 214, (R)-5-(2-(1H-pyrrol-1-yl)thiazol-4-yl)-2-morpholino-6-(piperidin-3-ylamino)pyrimidin-4(3H)-one] | 12 nM

Same assay, conditions: 100 μM ATP; read-out: IC50

Structure (SMILES) | IC50
O=c1[nH]c(N2CCOCC2)nc(NCC2CCCCN2)c1-c1ccc2ccccc2n1 (centres unmarked) [Example 276, 2-morpholino-6-(piperidin-2-ylmethylamino)-5-(quinolin-2-yl)pyrimidin-4(3H)-one] | 340 nM
O=c1[nH]c(N2CCOCC2)nc(NC2CCCCC2O)c1-c1nc2ccccc2s1 (centres unmarked) [Example 269, 5-(benzo[d]thiazol-2-yl)-6-(2-hydroxycyclohexyl-amino)-2-morpholinopyrimidin-4(3H)-one] | 5600 nM
N#Cc1cccc(-c2c(N[C@@H]3CCCNC3)nc(N3CCOCC3)[nH]c2=O)n1 [Example 221, (R)-6-(2-morpholino-6-oxo-4-(piperidin-3-ylamino)-1,6-dihydropyrimidin-5-yl)picolinonitrile] | 167 nM
NC(=O)CNc1nc(N[C@@H]2CCCNC2)c(-c2nc3ccccc3s2)c(=O)[nH]1 [Example 302, (R)-2-(5-(benzo[d]thiazol-2-yl)-6-oxo-4-(piperidin-3-ylamino)-1,6-dihydropyrimidin-2-ylamino)acetamide bis(2,2,2-trifluoroacetate)] | 2300 nM
O=c1[nH]c(N2CCOCC2)nc(NCCc2ncc[nH]2)c1-c1nc2ccccc2s1 [Example 264, 6-(2-(1H-imidazol-2-yl)ethylamino)-5-(benzo[d]thiazol-2-yl)-2-morpholino-pyrimidin-4(3H)-one] | 180 nM
O=c1[nH]c(N2CCOCC2)nc(N[C@@H]2CCCNC2)c1-c1csc(-n2ccnc2)n1 [Example 219, (R)-5-(2-(1H-imidazol-1-yl)thiazol-4-yl)-2-morpholino-6-(piperidin-3-ylamino)pyrimidin-4(3H)-one] | 4 nM
N#Cc1ccc(-c2c(N[C@@H]3CCCNC3)nc(N3CCOCC3)[nH]c2=O)nc1 [Example 223, (R)-6-(2-morpholino-6-oxo-4-(piperidin-3-ylamino)-1,6-dihydropyrimidin-5-yl)nicotinonitrile] | 81 nM
CN(c1nc(NC2CCCNC2)c(-c2nc3ccccc3s2)c(=O)[nH]1)[C@H]1CC[C@H](O)CC1 (stereo partly drawn) [Example 301, 5-(1,3-benzothiazol-2-yl)-2-[(4-hydroxycyclohexyl)(methyl)amino]-6-[[(3R)-piperidin-3-yl]amino]-3,4-dihydropyrimidin-4-one; trifluoroacetic acid] | 390 nM
CN(Cc1ccccc1)c1nc(N[C@@H]2CCCNC2)c(-c2nc3ccccc3s2)c(=O)[nH]1 [Example 307, 5-(1,3-benzothiazol-2-yl)-2-[benzyl(methyl)amino]-6-[[(3R)-piperidin-3-yl]amino]-3,4-dihydropyrimidin-4-one dihydrocbloride] | 310 nM
O=c1[nH]c(C2CCN(c3ncccn3)CC2)nc(N[C@@H]2CCCNC2)c1-c1nc2ccccc2s1 [Example 244, (R)-5-(benzo[d]thiazol-2-yl)-6-(piperidin-3-ylamino)-2-(1-(pyrimidin-2-yl)piperidin-4-yl)pyrimidin-4(3H)-one] | 260 nM

Same assay, conditions: 100 μM ATP; read-out: IRAK4 IC50

Structure (SMILES) | IC50
O=c1[nH]c(N2CC(O)(C(F)(F)F)C2)nc(N[C@@H]2CCCNC2)c1-c1ccc2ccccc2n1 [Example 170, (R)-2-(3-hydroxy-3-(trifluoromethyl)azetidin-1-yl)-6-(piperidin-3-ylamino)-5-(quinolin-2-yl)pyrimidin-4(3H)-one] | 18 nM
O=c1[nH]c(N2CCN(c3ccc(Cl)c(Cl)c3)CC2)nc(N[C@@H]2CCCNC2)c1-c1nc2ccccc2s1 [Example 153, (R)-5-(benzo[d]thiazol-2-yl)-2-(4-(3,4-dichlorophenyl)piperazin-1-yl)-6-(piperidin-3-ylamino)pyrimidin-4(3H)-one] | 57 nM
COc1cccc(N2CCN(c3nc(N[C@@H]4CCCNC4)c(-c4nc5ccccc5s4)c(=O)[nH]3)CC2)n1 [Example 143, (R)-5-(benzo[d]thiazol-2-yl)-2-(4-(6-methoxypyridin-2-yl)piperazin-1-yl)-6-(piperidin-3-ylamino)pyrimidin-4(3H)-one] | 10 nM
O=c1[nH]c(N2CCN(c3cc(Cl)ccn3)CC2)nc(N[C@@H]2CCCNC2)c1-c1nc2ccccc2s1 [Example 145, (R)-5-(benzo[d]thiazol-2-yl)-2-(4-(4-chloropyridin-2-yl)piperazin-1-yl)-6-(piperidin-3-ylamino)pyrimidin-4(3H)-one] | 9 nM
Cc1ccccc1C1CCN(c2nc(N[C@@H]3CCCNC3)c(-c3ccc4ccccc4n3)c(=O)[nH]2)CC1 [Example 188, (R)-6-(piperidin-3-ylamino)-5-(quinolin-2-yl)-2-(4-(o-tolyl)piperidin-1-yl)pyrimidin-4(3H)-one] | 17 nM
O=c1[nH]c(N2CCOCC2)nc(N[C@@H]2CCCNC2)c1-c1nc(-c2ccccn2)cs1 [Example 207] | 21 nM
CC1(C)CN(c2nc(N[C@@H]3CCCNC3)c(-c3nc4ccccc4s3)c(=O)[nH]2)CCO1 [Example 131, (R)-5-(benzo[d]thiazol-2-yl)-2-(2,2-dimethylmorpholino)-6-(piperidin-3-ylamino)pyrimidin-4(3H)-one] | 145 nM

Same assay, conditions: unit inferred; 100 μM ATP; read-out: IRAK4 IC50

Structure (SMILES) | IC50
O=c1[nH]c(N2CCCN(Cc3nccs3)CC2)nc(N[C@@H]2C[C@H](CO)[C@@H](O)[C@H]2O)c1-c1nc2ccccc2s1 [Example 75, 5-(benzo[d]thiazol-2-yl)-6-((1R,2S,3R,4R)-2,3-dihydroxy-4-(hydroxymethyl)cyclopentylamino)-2-(4-(thiazol-2-ylmethyl)-1,4-diazepan-1-yl)pyrimidin-4(3H)-one] | 226 nM
O=c1[nH]c(N2CCN(c3ccccn3)CC2)nc(N[C@@H]2C[C@H](CO)[C@@H](O)[C@H]2O)c1-c1nc2ccccc2s1 [Example 68, 5-(benzo[d]thiazol-2-yl)-6-((1R,2S,3R,4R)-2,3-dihydroxy-4-(hydroxymethyl)cyclopentylamino)-2-(4-(pyridin-2-yl)piperazin-1-yl)pyrimidin-4(3H)-one] | 12.1 nM
